Measurements published in article PMC4403045 (EMBO Molecular Medicine, 2015).
Where two headings read alike, the source gives them in different places.

Key:
BCR-ABL ALL cells = experiment: survival of mice transplanted with BCR-ABL ALL cells; assay type: in vivo; conditions: for survival extension: treatment at MTD, mice transplanted with BCR-ABL ALL cells
Method: Experimental procedures were approved by the Animal Care and Use Committee of Shanghai Institute of Biochemistry and Cell Biology, Chinese Academy of Sciences. In all, 200 wild-type C57BL/6 mice (6 weeks old, female) were used for determining maximally tolerated dose of CY, and testing CY and other drugs' efficacy in the BCR-ABL ALL model. […] At 7 days postinjection, mice were treated with indicated drugs at their MTDs. Mice were monitored daily for survival after drug treatment. Survival curve and statistical analysis were done using the Prism software. For xenograft H460 model, in all, nude mice (8 weeks old, female) were used to test CY and bendamustine's in vivo efficacy. The numbers of mice used in each experimental group are labeled on Fig4.

[1] = test system: CBP, TIP60, MORF, and MSL1 expression in H1650 cells; assay type: cell-based
[2] = test system: HDAC activities in H1650 cells; experiment: histone acetylation markers by Western blot in H1650 cells; assay type: cell-based; conditions: 12 h, 20 μM CY, 20 μM CpdA, 200 μM CpdB, 200 μM Bend
human CLL cells = assay type: cell-based
MEFs = experiment: GI50 in MEFs; assay type: cell-based
Method: (§1) Cells were seeded in 96-well plates, treated with different concentrations of drugs for 48 h, and cell viability was analyzed by MTT assays according to manufacturer's protocols. Experiments to determine GI50 with the NCI60 panel cell lines (http://dtp.nci.nih.gov/branches/btb/ivclsp.html) were performed at NCI (Alley et al, [1988]; Shoemaker, [2006]).

NCI60 cell lines = experiment: GI50 in the NCI60 cell line panel; assay type: cell-based; conditions: Homo sapiens
Method: as §1

HDAC1-6 = experiment: cell-free HDAC activity assays, HDAC1-6 overall; assay type: biochemical; conditions: Fig2A and 2B
[3] = mice; ref according to the literature; cited from earlier work
human AML cells = experiment: patient derived xenograft mouse model of human AML; conditions: done by other collaborators; review file
human cancer cell lines = experiment: cancer cell killing / MTT viability (LD50); assay type: cell-based
γ-H2AX in H1650 cells = experiment: γ-H2AX Western blot (DNA damage) in H1650 cells; assay type: cell-based; conditions: 12 h
HDAC6 = target: T1, HDAC6 (Homo sapiens, UniProt Q9UBN7); experiment: in vitro HDAC inhibition assay, HDAC6; assay type: biochemical
T1 sequence (Q9UBN7 1-1215): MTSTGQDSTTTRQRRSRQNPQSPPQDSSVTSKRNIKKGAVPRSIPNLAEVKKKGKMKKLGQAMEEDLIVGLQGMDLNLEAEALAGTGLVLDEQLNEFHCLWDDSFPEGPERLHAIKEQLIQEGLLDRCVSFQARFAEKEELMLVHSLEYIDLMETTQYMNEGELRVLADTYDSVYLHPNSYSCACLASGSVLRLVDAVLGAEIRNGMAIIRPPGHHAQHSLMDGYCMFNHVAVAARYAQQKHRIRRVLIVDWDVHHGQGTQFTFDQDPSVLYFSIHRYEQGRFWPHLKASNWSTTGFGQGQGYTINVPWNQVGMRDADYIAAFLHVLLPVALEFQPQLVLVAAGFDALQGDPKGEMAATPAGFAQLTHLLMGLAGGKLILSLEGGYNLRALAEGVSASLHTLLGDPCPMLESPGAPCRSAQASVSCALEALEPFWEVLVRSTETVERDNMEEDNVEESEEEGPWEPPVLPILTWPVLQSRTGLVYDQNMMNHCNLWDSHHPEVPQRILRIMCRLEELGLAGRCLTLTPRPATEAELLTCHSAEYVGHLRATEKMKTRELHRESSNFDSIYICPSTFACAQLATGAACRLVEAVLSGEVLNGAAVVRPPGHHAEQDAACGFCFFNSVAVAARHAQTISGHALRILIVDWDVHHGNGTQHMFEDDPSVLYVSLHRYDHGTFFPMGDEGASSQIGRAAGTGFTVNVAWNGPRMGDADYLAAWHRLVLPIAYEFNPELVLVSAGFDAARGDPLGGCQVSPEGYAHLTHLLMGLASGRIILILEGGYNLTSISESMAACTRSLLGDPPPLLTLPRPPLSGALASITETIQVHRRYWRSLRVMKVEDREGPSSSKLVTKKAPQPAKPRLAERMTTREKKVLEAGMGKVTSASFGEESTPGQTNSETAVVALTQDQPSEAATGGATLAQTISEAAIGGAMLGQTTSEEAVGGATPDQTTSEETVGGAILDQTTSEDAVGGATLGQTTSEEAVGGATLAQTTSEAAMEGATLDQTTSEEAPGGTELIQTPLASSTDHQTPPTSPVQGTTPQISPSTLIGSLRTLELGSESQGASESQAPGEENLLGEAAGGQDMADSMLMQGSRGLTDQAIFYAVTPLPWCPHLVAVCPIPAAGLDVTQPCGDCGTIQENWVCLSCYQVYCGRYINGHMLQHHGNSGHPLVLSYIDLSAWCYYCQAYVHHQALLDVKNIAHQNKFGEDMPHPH

HDAC1 = HDAC1 (Homo sapiens, UniProt Q13547); experiment: in vitro HDAC1 inhibition assay; assay type: biochemical
HDAC1, sequence (Q13547 whole entry): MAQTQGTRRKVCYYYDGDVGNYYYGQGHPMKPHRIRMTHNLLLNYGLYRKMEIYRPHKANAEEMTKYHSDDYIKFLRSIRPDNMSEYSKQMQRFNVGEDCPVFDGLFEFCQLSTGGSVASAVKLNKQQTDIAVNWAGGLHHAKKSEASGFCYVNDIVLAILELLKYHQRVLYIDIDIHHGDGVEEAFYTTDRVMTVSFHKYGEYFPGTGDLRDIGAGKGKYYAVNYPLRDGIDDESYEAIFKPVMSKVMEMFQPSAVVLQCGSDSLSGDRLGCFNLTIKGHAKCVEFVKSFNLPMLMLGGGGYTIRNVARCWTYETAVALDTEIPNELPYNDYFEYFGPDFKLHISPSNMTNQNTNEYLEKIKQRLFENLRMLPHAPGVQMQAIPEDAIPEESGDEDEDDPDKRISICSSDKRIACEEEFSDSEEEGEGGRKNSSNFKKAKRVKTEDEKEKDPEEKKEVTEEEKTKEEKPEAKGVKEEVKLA

[4] = test system: BCR-ABL Arf−/− murine ALL cells; experiment: activity against BCR-ABL ALL cells in vitro; assay type: cell-based
Method: Cell lines were cultured using standard protocols provided by ATCC. Myc Arf^−/− cells were cultured as described (Jiang et al, [2009]). BCR-ABL mouse ALL cells were a kind gift from Dr. Richard Williams. CY190602 and its derivatives compound A and B were synthesized by Dr. Wang's Laboratory (U. New Mexico). Other chemicals were purchased from Selleck, EMD, or VWR. Antibodies against γ-H2AX (Millipore), actin (Sigma), H3K18Ac, H3K9Ac, and H3K56Ac (Cell Signaling) were used for Western blotting.
as §1

HDAC4 = HDAC4 (Homo sapiens, UniProt P56524); experiment: in vitro HDAC inhibition assay, HDAC4; assay type: biochemical
HDAC4, sequence (P56524 whole entry): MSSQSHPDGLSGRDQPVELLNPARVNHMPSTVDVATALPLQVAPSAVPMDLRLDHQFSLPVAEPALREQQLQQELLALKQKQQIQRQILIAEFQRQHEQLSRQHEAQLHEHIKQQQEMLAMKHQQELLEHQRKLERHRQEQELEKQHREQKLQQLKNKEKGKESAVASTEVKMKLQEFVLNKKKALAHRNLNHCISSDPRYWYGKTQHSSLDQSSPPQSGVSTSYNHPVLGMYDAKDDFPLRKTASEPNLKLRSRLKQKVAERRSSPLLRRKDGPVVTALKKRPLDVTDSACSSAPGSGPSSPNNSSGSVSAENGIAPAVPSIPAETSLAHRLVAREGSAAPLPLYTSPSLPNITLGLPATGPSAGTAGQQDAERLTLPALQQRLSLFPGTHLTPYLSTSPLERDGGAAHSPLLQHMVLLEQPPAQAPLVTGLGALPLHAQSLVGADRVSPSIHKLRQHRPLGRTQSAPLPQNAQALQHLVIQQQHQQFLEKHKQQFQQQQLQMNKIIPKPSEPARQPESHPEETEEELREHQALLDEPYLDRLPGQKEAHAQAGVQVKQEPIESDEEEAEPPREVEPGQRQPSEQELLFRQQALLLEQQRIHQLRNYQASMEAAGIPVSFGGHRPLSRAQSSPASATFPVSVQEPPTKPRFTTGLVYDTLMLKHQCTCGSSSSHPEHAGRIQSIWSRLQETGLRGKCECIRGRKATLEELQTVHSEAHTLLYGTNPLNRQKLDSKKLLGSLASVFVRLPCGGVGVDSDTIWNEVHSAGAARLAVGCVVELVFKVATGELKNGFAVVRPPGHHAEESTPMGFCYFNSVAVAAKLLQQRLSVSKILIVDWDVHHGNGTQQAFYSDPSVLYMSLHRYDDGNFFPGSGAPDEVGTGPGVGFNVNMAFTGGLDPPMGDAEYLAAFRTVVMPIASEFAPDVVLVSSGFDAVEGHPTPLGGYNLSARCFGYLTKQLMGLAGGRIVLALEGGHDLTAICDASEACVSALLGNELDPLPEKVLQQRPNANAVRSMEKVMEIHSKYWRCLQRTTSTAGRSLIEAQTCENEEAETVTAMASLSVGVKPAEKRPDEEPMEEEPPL

[5] = test system: human NSCLC cell line H460; experiment: H460 xenograft in nude mice; assay type: in vivo; conditions: single dose CY 20, 40, 60 mg/kg; bendamustine 40 mg/kg
Method: (§2) Experimental procedures were approved by the Animal Care and Use Committee of Shanghai Institute of Biochemistry and Cell Biology, Chinese Academy of Sciences. In all, 200 wild-type C57BL/6 mice (6 weeks old, female) were used for determining maximally tolerated dose of CY, and testing CY and other drugs' efficacy in the BCR-ABL ALL model. BCR-ABL cells have been previously described (Williams et al, [2006]). For in vivo experiments, 1 million cells were injected into mice via tail vein (Williams et al, [2006]). At 7 days postinjection, mice were treated with indicated drugs at their MTDs. Mice were monitored daily for survival after drug treatment. Survival curve and statistical analysis were done using the Prism software. For xenograft H460 model, in all, nude mice (8 weeks old, female) were used to test CY and bendamustine's in vivo efficacy. The numbers of mice used in each experimental group are labeled on Fig4.

HDAC3 = HDAC3 (Homo sapiens, UniProt O15379); experiment: in vitro HDAC inhibition assay, HDAC3; assay type: biochemical
HDAC3, sequence (O15379 whole entry): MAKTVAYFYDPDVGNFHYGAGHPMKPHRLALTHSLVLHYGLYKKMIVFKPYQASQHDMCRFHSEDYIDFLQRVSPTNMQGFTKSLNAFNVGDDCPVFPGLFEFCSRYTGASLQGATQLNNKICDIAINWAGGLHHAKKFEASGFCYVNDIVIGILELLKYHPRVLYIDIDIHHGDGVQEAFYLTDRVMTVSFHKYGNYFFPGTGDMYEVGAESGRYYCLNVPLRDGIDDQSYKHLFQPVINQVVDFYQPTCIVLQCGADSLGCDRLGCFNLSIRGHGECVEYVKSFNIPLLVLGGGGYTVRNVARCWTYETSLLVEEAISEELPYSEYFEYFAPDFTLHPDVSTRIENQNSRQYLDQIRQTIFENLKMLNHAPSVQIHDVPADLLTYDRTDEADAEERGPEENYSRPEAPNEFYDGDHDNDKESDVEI
HDAC3, sequence (Q9Y618 395-489 partner limits assumed): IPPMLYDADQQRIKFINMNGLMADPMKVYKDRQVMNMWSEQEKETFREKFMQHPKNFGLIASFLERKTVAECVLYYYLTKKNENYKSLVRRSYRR

[6] = viability of healthy primary B cells; assay type: cell-based; conditions: human, healthy primary CD19+ B cells from blood donors, 20 μM CY
From the text: This study was approved by the ethics committee of the University of Cologne (approval 01-163). Blood samples were obtained from patients fulfilling diagnostic criteria for CLL with informed consent according to the Helsinki protocol. Only patients without prior therapy or at least 12 months without prior chemotherapy were included in this study. Fresh blood samples were enriched by applying B-RosetteSep (StemCell Technologies, Vancouver, Canada) to aggregate unwanted cells with erythrocytes and Ficoll-Hypaque (Seromed, Berlin, Germany) density gradient purification resulting in purity > 98% of CD19^+/CD5^+ CLL cells. CLL cells were characterized for CD19, CD5, CD23, FMC7, CD38, ZAP-70, slgM, slgG, CD79a, and CD79b expression on a FACSCanto flow cytometer (BD PharMingen, Heidelberg, Germany). Controls were isolated from healthy blood donors using anti-CD19 MACS beads (Miltenyi, Bergisch Gladbach, Germany) resulting in at least 95% CD19^+ B cells.
Apoptosis was determined by flow cytometry using Annexin V-FITC/7AAD staining (BD PharMingen) after 72 h. […] The fraction of viable cells was determined by counting annexin V/7-AAD double-negative cells for each individual dosage. Median values were subsequently applied for regression analysis and calculation of the half-maximal dosage effect (IC50). […] IC50 values were determined by fitting data to the Hill equation y = y0 + (axb)/(cb+xb).

HDAC2 = HDAC2 (Homo sapiens, UniProt Q92769); experiment: in vitro HDAC inhibition assay, HDAC2; assay type: biochemical
HDAC2, sequence (Q92769 whole entry): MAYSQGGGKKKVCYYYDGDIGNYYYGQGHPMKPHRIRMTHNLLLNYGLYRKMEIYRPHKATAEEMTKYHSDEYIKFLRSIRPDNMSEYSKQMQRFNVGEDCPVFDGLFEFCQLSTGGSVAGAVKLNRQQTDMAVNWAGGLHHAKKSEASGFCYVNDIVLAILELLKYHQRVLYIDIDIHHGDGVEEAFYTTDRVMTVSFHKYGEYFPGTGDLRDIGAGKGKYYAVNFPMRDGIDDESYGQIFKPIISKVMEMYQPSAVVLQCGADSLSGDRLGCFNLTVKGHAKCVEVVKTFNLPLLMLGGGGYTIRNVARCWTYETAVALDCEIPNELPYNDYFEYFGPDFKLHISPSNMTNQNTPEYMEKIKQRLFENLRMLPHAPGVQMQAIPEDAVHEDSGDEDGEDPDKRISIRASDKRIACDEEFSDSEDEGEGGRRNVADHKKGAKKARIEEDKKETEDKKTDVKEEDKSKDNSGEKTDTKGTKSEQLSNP

[7] = maximally tolerated dose in mice; conditions: female, C57BL/6, mouse, in vivo
Method: as §2

[8] = median over NCI60 cell lines, read-out: median growth inhibitor concentration (GI50)
[9] = H1650 cells, 6 h, bendamustine 350 μM, CY 15 μM, SAHA 10 μM

In the case of O=C(CCCCCCC(=O)Nc1ccccc1)NO [SAHA], the survival extension (BCR-ABL ALL cells) is reported as “approximately 2 days” and the “expression of Tip60, CBP, MORF and MSL1” value [1] is reported as “significant suppression”.

For Cn1c(CCCCCCC(=O)O)nc2cc(N(CCCl)CCCl)ccc21 [compound B], the “inhibition of HDAC activities in cancer cells (histone acetylation markers)” value (shortened to “inhibition of HDAC activities”) [2] was “little HDAC inhibitory activity” and the “inhibition of HDAC activities” value ([2]; listed as CpdB) was “not”.

With Nc1nc(F)nc2c1ncn2[C@@H]1O[C@H](CO)[C@@H](O)[C@@H]1O [fludarabine] the “CLL cells killed at 100 μM” value (human CLL cells) was “about 80%”.

With Cn1c(CCCC(=O)O)nc2cc(N(CCCl)CCCl)ccc21 [bendamustine] the “CLL cells killed at 100 μM” value (human CLL cells; 100 μM, 72 h) was “about 80%”, the GI50 (MEFs; MEFs, authors' response in review file) was ~390 µM and the GI50 (NCI60 cell lines; [8]) was 77 µM. For the same compound, the GI50 (NCI60 cell lines; read-out: GI50 for most cancer cell lines of the NCI 60 test) was > 100 µM, the survival extension (BCR-ABL ALL cells) was ~5 days and the “HDAC inhibition” value (HDAC1-6) was “inability to inhibit HDAC”. The “inhibition of HDAC activities” value [2] was “not”, the MTD [3] was 40 mg/kg and the “expression of Tip60, CBP, MORF and MSL1” value [1, 9] was “not”.

In the case of Nc1ccn([C@@H]2O[C@H](CO)[C@@H](O)[C@@H]2O)c(=O)n1 [Cytarabine, reference compound], the “effect on AML cells” value (human AML cells) is reported as “didn’t kill AML cells as quickly, or as thoroughly as did CY” and the “effect on mouse CD45+ (hematopoeitc lineage) cells” value (human AML cells) is reported as “nearly wiped out CD45+ cells”.

In the case of Cn1c(CCCCCCC(=O)NO)nc2cc(N(CCO)CCO)ccc21 [compound A], the “synergy with bendamustine in killing cancer cells” value (human cancer cell lines; nontoxic dose of Cpd A plus bendamustine) is reported as “significantly synergized with bendamustine”, the “killing of cancer cells” value (human cancer cell lines; up to 200 μM, 48 h) is reported as “very ineffective in killing cancer cells” and the “level of γ-H2AX in bendamustine-treated cells” value (γ-H2AX in H1650 cells; 100 μM Bend plus 50 μM Cpd A) is reported as “significantly increased”. For the same compound, the “DNA damage (γ-H2AX) by the compound alone” value (γ-H2AX in H1650 cells; H1650 cells) was “did not cause DNA damage” and the “inhibition of HDAC activities” value [2] was “inhibited HDAC activities”.

For Cn1c(CCCCCCC(=O)NO)nc2cc(N(CCCl)CCCl)ccc21 [CY190602], the “CLL cells killed at 5 μM” value (human CLL cells; 5 μM, 72 h) was “nearly all”, the IC50 (HDAC6) was 0.072 µM and the IC50 (HDAC1; HDAC1 Assay (plot legend value), Fig 2A upper panel) was 0.009 µM. The IC50 (HDAC1; IC50 of CY, HDAC1, Fig 2A lower panel) was 0.017 µM, the “activity in cultured BCR-ABL ALL cells compared with bendamustine” value [4] was “more active than bendamustine” and the GI50 (MEFs) was 57 µM. For the same compound, the IC50 (HDAC4) was 0.0064 µM, the “anticancer activity in H460 xenograft compared with bendamustine” value [5] was “superior to bendamustine” and the IC50 (HDAC3) was 0.025 µM. It also gave a viability at 72 h, 20 μM [6] of ~40%, a GI50 (NCI60 cell lines; average over NCI60 cell lines, read-out: average GI50) of 3.2 µM and a GI50 (NCI60 cell lines; [8]) of 2.2 µM. For the same compound, the IC50 (HDAC2) was 0.01 µM, the “survival extension compared with cyclophosphamide, doxorubicin, cytarabine, and vincristine” value (BCR-ABL ALL cells; drugs at MTD) was “superior to these drugs” and the survival extension (BCR-ABL ALL cells) was 14 days. For the same compound, the “effect on AML cells” value (human AML cells) was “nearly eliminated AML cells”, the “effect on mouse CD45+ (hematopoeitc lineage) cells” value (human AML cells) was “minimal effect” and the MTD [7] was 60 mg/kg. The “inhibition of HDAC activities” value [2] was “inhibited HDAC activities” and the “expression of Tip60, CBP, MORF and MSL1” value [1, 9] was “greatly suppressed”.

For CC(C)n1nc(-c2cc3cc(O)ccc3[nH]2)c2c(N)ncnc21 [PP242], the “survival extension, daily treatment” value (BCR-ABL ALL cells; daily dose) was 8 days.
